Like-named read-outs stand apart in the source and are kept apart here.
What was measured:
Hepatitis B virus [1] = assay: Hepatitis B virus AAV mouse experiment, serum HBsAg and HBeAg; format: in vivo, rAAV8-1.3HBV/C57BL/6 Mouse; details: 3 mg/kg, single subcutaneous dose
From the text: Preparation and Grouping of rAAV8-1.3HBV/C57BL/6 Mouse Model: A persistent HBV infection mouse model was established by tail vein injection of rAAV8-1.3HBV (strain C) into C57 mice. The AAV virus injection dose was 1E+11 vg/mouse. Six weeks after injection, blood samples were collected for analysis of serum HBeAg, HBsAg and ALT levels. Based on the quantitative results of serum HBsAg (primary) and HBeAg (secondary), 35 mice were randomly divided into stratified groups, with 5 mice per group.
(§1) Test Sample Preparation and Administration: The required dosage of drug powder was calculated based on the purity of each test sample. At a dosing concentration of 0.6 mg/mL, the corresponding saline solution was added and mixed by vortexing until a colorless, transparent liquid was obtained. The day of the first administration was defined as Day 0. All groups received a single subcutaneous dose of 5 mL/kg on Day 0. If blood sampling was required on the day of dosing, it was performed after blood collection. Main Outcome Measures: Mice were weighed and blood was collected once on Days 3, 7, 14, 21 and 28. Serum was separated for HBsAg and HBeAg level determination.
(§2) Serum HBsAg and HBeAg Level Determination: After blood collection, serum was separated, diluted with PBS, and submitted for analysis. From each sample, 10 µL of serum was removed and diluted to 500 µL (50-fold dilution) with PBS. Serum HBsAg and HBeAg levels were measured using a Hepatitis B e Antigen Assay Kit and a Hepatitis B Surface Antigen Assay Kit, respectively.

Hepatitis B virus [2] = assay: HBV-Tg transgenic mouse experiment, serum HBsAg and HBeAg; format: in vivo, HBV-Tg transgenic mice, C57B/6N-Tg(1.28HBV)/Vst; details: 3 mg/kg, single subcutaneous dose
From the text: Experimental Animals: HBV-Tg transgenic mice, C57B/6N-Tg(1.28HBV)/Vst, SPF-grade males, 6-8 weeks old, weighing 16-20 g, were purchased from Beijing Vitalstar Biotechnology Co.,Ltd., Animal Production Certificate No.: SCXK(Beijing)2019-0002. Animals were housed individually in individual cages by Beijing Vitalstar Biotechnology Co.,Ltd.
Animal Grouping: Based on the quantitative results of serum HBsAg (primary) and HBeAg (secondary), animals were stratified and randomly divided into groups, with 5 animals per group.
as §1, with “collection.” for “collection. Main Outcome Measures: Mice were weighed and blood was collected once on Days 3, 7, 14, 21 and 28. Serum was separated for HBsAg and HBeAg level determination.”
Main Outcome Measures: Animals were weighed and blood was collected once on Days 3, 7, 14, 21, 28 and 35. Serum was separated for HBsAg and HBeAg level determination.
as §2, with “Kit (Mike Biotech)” for “Kit”, “Kit (Mike Biotech),” for “Kit,”

hepatitis B virus (HBV) = assay: Anti-HBV activity in the PHH in vitro infection model (transfection or free uptake); format: cell-based, HBV serotype D; details: for EC50: PHH infected with HBV serotype D, supernatant Day 8
Experimental: Transfection and Drug Dosing: On Day 0, revived PHH were adjusted to an appropriate density (6.67E+05 cells/ml) and seeded into 48-well cell culture plates at 1.32E+05 cells per well. On Day 1, HBV serotype D was added to infect PHH (800 GE/cell). On Day 2, fresh medium was replaced. On Day 4, the cell culture medium was discarded, and the test compound was serially diluted to the required concentration, which were then introduced into the cells via transfection using Lipofectamine™ RNAiMAX. The starting concentration of the test compound was 500 pM, and 5-fold dilutions were performed. Seven concentrations were set up in duplicate, with wells containing only the transfection reagent as the medium control. Four to five hours after transfection, fresh medium without compound was replaced. The final DMSO concentration in the medium was 2%. On Day 6, fresh medium without compound was replaced. On Day 8, cell supernatants were harvested, and cell viability was assessed using CCK-8 assay.
Drug Administration via Ad libitum uptake : On day 0, the test compound was diluted to the desired concentration in enzyme-free water, starting at 500 nM. Five-fold dilutions were performed, each with seven concentrations, in duplicate, with 22 µl added to each well of the cell culture plate. Thawed frozen PHHs were plated to an appropriate density (6.67E+05 cells/ml), with 1.32E+05 cells per well. The cells were then plated and allowed to ad libitum uptake of the test compound. On day 1, the medium was changed, and the PHHs were infected with HBV serotype D (800 GE/cell). On day 2, fresh medium was replaced without virus or test compound. The final DMSO concentration in the medium was 2%. On Day 4 and 6, fresh medium without test compound was replaced. On Day 8, cell supernatants were harvested, and cell viability was assessed using CCK-8 assay.
Sample testing: qPCR was used to detect the HBV DNA content in the cell culture supernatant; ELISA was used to detect the HBsAg and HBeAg content in the cell culture supernatant. The experimental results of the double-stranded siRNA conjugate of the present invention reducing the levels of HBsAg, HBeAg and DNA in cells are shown in Table 3. Table 3: Experimental results of the double-stranded siRNA conjugates of the present invention in reducing the levels of HBsAg, HBeAg and DNA in cells

[3] = compared with vehicle control group
[4] = No transfection (ad libitum uptake, Day 0), ELISA, read-out: Experimental results EC50 HBeAg
[5] = No transfection (ad libitum uptake, Day 0), ELISA, read-out: Experimental results EC50 HBsAg
[6] = No transfection (ad libitum uptake, Day 0), qPCR, read-out: Experimental results EC50 DNA

Substance	inhibitory activity against HBsAg compared with controls DAW30025 (S149) and DAW30336 (S151) (Hepatitis B virus [1]; Figure 2)	inhibitory effect on reducing HBeAg (Hepatitis B virus [1]; [3])	inhibitory effects on HBsAg (Hepatitis B virus [1]; compared with vehicle control group, Figure 2)	inhibitory activity on HBsAg compared with control DAW30025 (S149) (Hepatitis B virus [2]; Figure 1)	inhibitory effect on reducing HBeAg (Hepatitis B virus [2]; [3])	inhibitory effects on HBsAg (Hepatitis B virus [2]; compared with vehicle control group, Figure 1)	EC50 (hepatitis B virus (HBV); [4])	EC50 (hepatitis B virus (HBV); [5])	EC50 (hepatitis B virus (HBV); [6])	EC50 (hepatitis B virus (HBV); Transfection (RNAiMAX, Day 4), ELISA, read-out: Experimental results EC50 HBeAg)	EC50 (hepatitis B virus (HBV); Transfection (RNAiMAX, Day 4), ELISA, read-out: Experimental results EC50 HBsAg)	EC50 (hepatitis B virus (HBV); Transfection (RNAiMAX, Day 4), qPCR, read-out: Experimental results EC50 DNA)	inhibitory activity against HBsAg, HBeAg and DNA (hepatitis B virus (HBV); statement in words on Table 3)	inhibitory activity against HBsAg, HBeAg and DNA compared with control S148 (hepatitis B virus (HBV); without transfection)
S147: double-stranded siRNA conjugate; sense strand-conjugation group SEQ ID NO 41, antisense SEQ ID NO 27 u•G•ugaAYCGaaguGcAcac•u•u (sense GUGUGCACUUCGCUUYACA; antisense UGUGAAYCGAAGUGCACACUU; conjugation group on sense strand, modifications, key not given here; listed as Albies alba)	significantly better than that of the controls	a certain inhibitory effect	significant inhibitory effects	–	–	–	–	–	–	–	–	–	–	–
S146: double-stranded siRNA conjugate; sense strand-conjugation group SEQ ID NO 21, antisense SEQ ID NO 27 u•G•ugaAYCGaaguGcAcac•u•u (sense GUGUGCACUUCGCUUCYCA; antisense UGUGAAYCGAAGUGCACACUU; conjugation group on sense strand, modifications, key not given here; listed as Albies alba)	–	–	–	significantly superior to that of the control group	a certain inhibitory effect	significant inhibitory effects	2.24 nM	0.782 nM	0.737 nM	0.209 nM	0.05 nM	0.082 nM	good inhibitory activity	significantly better than that of the control S148
S148: control double-stranded siRNA conjugate; sense strand-conjugation group SEQ ID NO 42, antisense SEQ ID NO 33 (sense GUGUGCACUUCGCUUCACA; antisense TGTGAAGCGAAGTGCACACTT; conjugation group on sense strand, position not given here; listed as Albies alba) [reference compound]	–	–	–	–	–	–	7.42 nM	2.9 nM	5.72 nM	–	–	–	–	–

Reference: patent EP4706646A1, “NOVEL DOUBLE-STRANDED SIRNA, CONJUGATE THEREOF, AND USE THEREOF” (priority 2023, dated 2024)
